“Also recorded” adds a separate entry of the source.
How the values were obtained:
[1] = 3-armed crossover study: respiratory quotient before, during and after physical exertion (bicycle ergometer, Wingate test) with test drinks; format: in vivo, human; conditions: 21 male endurance athletes
Protocol: The effect of isomaltulose (Palatinose™) on the regulation of the metabolism before, during and after physical exertion was examined and compared with the consumption of maltodextrin or a placebo which has a non-glycaemic effect and is of equivalent sweetness.
The test was carried out as a 3-armed crossover study on 21 subjects. In each subject, the effect of a non-glycaemic drink (placebo=sweetened mineral water) was tested versus a drink containing maltodextrin versus isomaltulose.
The subjects were male endurance athletes with several years' training experience (VO2max>55 ml/kg KG) aged between 23 and 50.
In step ergometry on a bicycle (100 watts at the start; increased by 50 watts/3 min), performance was first determined in the range of from 70-75% of the maximum oxygen uptake. After a sufficient regeneration phase of at least 5 days, the first testing was carried out in randomised order. The testing was carried out in the morning, at the same time in each case, 3-4 hours after a standardised breakfast.
Standardised endurance exertion was first carried out on a bicycle ergometer at 70-75% of the VO2max over 90 min. […] The respiratory quotient (RQ) was determined at the moments −30, −15, 0, 15, 30, 45, 60, 75, 90 min before or during the exertion, immediately after completion of the Wingate test and also 3, 15, 30, 60 and 120 min after end of exertion. […]

[2] = Second meal effect crossover study: respiratory quotient over a test period including two meals and 30-min treadmill exertion; format: in vivo, human; conditions: 20 subjects
Protocol: The test was a crossover study with 20 subjects. In each subject, the effect of isomaltulose vs. sucrose/glucose syrup was tested.
The test period comprised two meals into which the test substances were integrated: on the one hand a breakfast, which consisted of a drink (250 ml, 10% carbohydrates=25 g of test substance) and biscuits (approx. 140 g, also with 25 g of test substance), and on the other hand a lunch consisting of mini pizzas, an apple and a refreshment drink. The carbohydrate quantity, consumed per portion of shortpastry, of wheat starch of the flour was, at about 50-60 g carbohydrates, at the same level in all biscuit variants. Each test period comprised two postprandial phases.
The respiratory quotient was determined first at rest, then during the subsequent 30-min exertion at moderate intensity (treadmill uphill protocol 4 km/h 5% gradient), at the end of the 30-minute post-exertion phase and up to 4 hours after consumption of the second meal (the lunch).

For `OC[C@H]1O[C@H](OC[C@H]2OC(O)(CO)[C@@H](O)[C@@H]2O)[C@H](O)[C@@H](O)[C@@H]1O` (stereo partly shown) [isomaltulose], the “respiratory quotient (RQ) after the physical exertion versus immediately prior to the exertion (percentage change)” value ([1]; 250 ml drinks with 25 g carbohydrate 30 min prior, at start, after 45 min and after Wingate test (2x250 ml), 90 min at 70-75% VO2max) was “substantially equal to or even lower; also recorded: substantially equal”, the “RQ throughout the test phase” value ([1]; isomaltulose drink compared with maltodextrin drink or placebo) was “lower RQ” and the “RQ after consumption of the breakfast” value ([2]; breakfast drink with 25 g plus biscuits with 25 g test substance, versus sucrose/glucose syrup breakfast) was “lower than after the sucrose/glucose syrup breakfast”. For the same molecule, the “degree by which the RQ was lower after consumption of a second meal (lunch)” value ([2]; up to 4 hours after the lunch, versus sucrose/glucose syrup) was “maintained”.

Source: patent US20100004194A1, “USE OF ISOMALTULOSE IN FOOD PRODUCTS HAVING A REGENERATIVE EFFECT” (priority 2006, published 2010)
